Results as given in patent US20090178587A9, “Control of biofilms in industrial water systems” (priority 2001, published 2009).
Where “and” joins values, the source holds several entries; their conditions need not be identical. Equal values may be shown once. Read-outs that look alike come from different tables or passages of the source.

Assays:
[1] = test system: sessile bacteria; settings: pH 9; cited from earlier work
[2] = test system: biofilm bacteria; settings: cited from earlier work
[3] = test system: biofilm-associated Legionella; settings: cited from earlier work
[4] = test system: biofilms of Pseudomonas aeruginosa (ATCC 15442); assay: MBEC (minimum biofilm eradication concentration) test, 96-peg Calgary biofilm device; type: cell-based
[5] = test system: HPC Bacteria (planktonic and biofilm); assay: Laboratory model water system, 48-hour biocide challenge and 14-day recovery: HPC bacteria; type: cell-based
[6] = test system: biofilms of Sphaerotilus natans; settings: dynamic tests; maximum applied dose 20 ppm; cited from earlier work
[7] = test system: 3-day biofilms; settings: cited from earlier work
[8] = test system: biofilms consisting of a consortium of Legionella, heterotrophic bacteria and amoebae; settings: cited from earlier work
[9] = test system: 21-day old biofilms; settings: 1 mg/L free residual; 30° C.; cited from earlier work
[10] = test system: Legionella pneumophila; settings: 1 mg/L for 24 hours; either metal surface; cited from earlier work
[11] = test system: biofilm bacteria; settings: 1 ppm residuals; cited from earlier work
[12] = test system: biofilm bacteria; settings: 1.5 mg/L applied continuously for 18 hours; cited from earlier work
[13] = 1-day biofilm, one hour contact time, average, halogen biocides as Cl2, others as active ingredient
[14] = 1-day biofilm, one hour contact time, individual determinations, halogen biocides as Cl2, others as active ingredient
[15] = maximum log reduction, typically 2-12 hours after biocide application
[16] = relative to control after the 14-day recovery period
[17] = 7-day biofilm, one hour contact time, average, halogen biocides as Cl2

O=S(=O)([O-])[O-].OC[P+](CO)(CO)CO.OC[P+](CO)(CO)CO [THPS]
log reductions in sessile bacteria / biofilm counts [1]: 2 log

BrBr [bromine]
log reductions of biofilm bacteria [2]: ~3 log | effect on levels of biofilm-associated Legionella [3]: non detectable levels

N#CC(Br)(Br)C(N)=O [DBNPA, Dibromonitrilopropionamide]
1-Day Biofilm MBEC, avg. [4, 13]: 3.1 ppm | 1-Day Biofilm MBEC, ppm [4, 14]: 2.0 ppm and 4.1 ppm | effect on levels of biofilm-associated Legionella [3]: non detectable levels

CC(=O)OO [Peracetic Acid, peracetic acid]
1-Day Biofilm MBEC, avg. ([4]; 1-day biofilm, four-hour contact time, average (est.)): ~150 ppm | 1-Day Biofilm MBEC, ppm ([4]; 1-day biofilm, four-hour contact time, individual determinations, active ingredient): 100, >100 ppm

CCCCCCCCCCSCCN.Cl [DTEA, decylthioethaneamine hydrochloride]
1-Day Biofilm MBEC, avg. [4, 13]: 100 ppm | 1-Day Biofilm MBEC, ppm [4, 14]: 100, 100 ppm

OO [H2O2, hydrogen peroxide]
1-Day Biofilm MBEC, avg. [4]: >200 ppm | 1-Day Biofilm MBEC, ppm [4]: >100, >100 ppm | log reductions in sessile bacteria / biofilm counts [1]: 2 log

CC1(C)C(=O)N(Br)C(=O)N1Br [DBDMH, 1-3-dibromo-5,5-dimethylhydantoin]
1-Day Biofilm MBEC, avg. [4]: 1.2 ppm | 1-Day Biofilm MBEC, ppm [4]: 1.2 ppm | 7-Day Biofilm MBEC, avg. [4]: 5 ppm | 7-Day Biofilm MBEC, ppm [4]: 5, 5 ppm | MBEC [4]: 1.4 mg/L | Log Reduction, HPC Bacteria, Biofilm [5, 15]: 2.7 log | Log Reduction, HPC Bacteria, Planktonic [5, 15]: 3.6 log | Log Reduction, HPC Bacteria, Biofilm [5, 16]: 0.4 log | Log Reduction, HPC Bacteria, Planktonic [5, 16]: 0.2 log

O=c1n(Cl)c(=O)n(Cl)c(=O)n1Cl [Trichlor, 1,3,5-trichloroisocyanuric acid]
1-Day Biofilm MBEC, avg. [4]: 1.9 ppm | 1-Day Biofilm MBEC, ppm [4]: 2.5, 1.2 ppm | 7-Day Biofilm MBEC, avg. [4]: 20 ppm | 7-Day Biofilm MBEC, ppm [4]: 20, 20 ppm

OBr [HOBr, hypobromous acid]
treatment level for biofilm control (but not eradication) [6]: 15 ppm

O=CCCCC=O [Glutaraldehyde, glutaraldehyde]
1-Day Biofilm MBEC, avg. [4, 13]: 50 ppm | 1-Day Biofilm MBEC, ppm [4, 14]: 50, 50 ppm | 7-Day Biofilm MBEC, avg. [4, 17]: ~200 ppm | 7-Day Biofilm MBEC, ppm ([4]; 7-day biofilm, one hour contact time, individual determinations, halogen biocides as Cl2): 100 ppm and > 200 ppm | "no effect" level on biofilm removal [7]: 20 ppm | log reductions in sessile bacteria / biofilm counts [1]: 2 log | effect on levels of biofilm-associated Legionella [3]: non detectable levels | efficacy against biofilm-associated heterotrophic bacteria and Legionella [8]: effective

[Na+].[O-]Cl [Bleach, NaOCl]
1-Day Biofilm MBEC, avg. [4]: 3.8 ppm | 1-Day Biofilm MBEC, ppm [4]: 5.0, 2.5 ppm | 7-Day Biofilm MBEC, avg. [4]: 20 ppm | 7-Day Biofilm MBEC, ppm [4]: 20, 20 ppm

CC1(C)C(=O)N(Cl)C(=O)N1Br [BCDMH, 1-bromo-3-chloro-5,5-dimethylhydantoin]
1-Day Biofilm MBEC, avg. [4]: 2.5 ppm | 1-Day Biofilm MBEC, ppm [4]: 2.5, 2.5 ppm | 7-Day Biofilm MBEC, ppm [4]: 5, 10 ppm | 7-Day Biofilm MBEC, avg. [4, 17]: 7.5 ppm | reduction of biofilm counts on mild steel [9]: 1.4 logs | reduction of biofilm counts on stainless steel [9]: 2.0 logs | viable Legionella recovered from the biofilms [10]: no viable Legionella were recovered | log kill of biofilm bacteria [11]: 1 log | efficacy against biofilm-associated heterotrophic bacteria and Legionella [8]: also effective but was slower acting

O=[O+][O-] [ozone]
effect on levels of biofilm-associated Legionella [3]: did not appear to significantly affect

CCC1(C)C(=O)N(Cl)C(=O)N1Br (centres unmarked) [BrMEH, bromo-chloro-methylethylhydantoin]
treatment level for biofilm control (but not eradication) [6]: 10 ppm | log kill of biofilm bacteria [11]: 0.7 log

OCl [HOCl, Hypochlorous acid]
treatment level for biofilm control (but not eradication) [6]: > 20 ppm

[O][Cl+][O-] [ClO2, Chlorine dioxide]
reduction of biofilm bacteria [12]: 99.4%
